Legend:
[1] = system: THP-1 differentiated macrophages; assay: Galectin-3-induced pro-inflammatory cytokine secretion, cytokine ELISA; assay type: cell-based; details: Galectin-3 10 μg/ml, various concentrations
Experimental: Secretion of pro-inflammatory cytokines IL-6 (FIG. 7A), IL-1β (FIG. 7B) and TNFα (FIG. 7C) from THP-1 differentiated macrophages was analysed in the absence or presence of Galectin-3 (10 μg/ml) and various concentrations of the compound of Formula I by cytokine ELISA.
THP-1 monocytes (5×10^5 cells/ml) were differentiated into macrophages by incubation with 10 ng/ml Phorbol 12-myristate-13-acetate (PMA) for 48 h at 37° C. The differentiated cells were washed gently with medium before introduction of fresh medium without or with 10 μg/ml Galectin-3, and/or different concentrations of the inhibitors for 24 h at 37° C. The culture medium was collected and the concentrations of IL-6, TNFα and IL1β in the medium were measured by IL-6, TNFα and IL1β ELISA kits according to the manufacture's protocols.

SW620^Gal3+ cells = assay: Tumour growth and metastasis in chick chorioallantoic membrane (CAM) model; assay type: in vivo, chicken embryos
Experimental: (§1) Effect of the compound of Formula I on tumour formation, growth and metastasis of SW620Gal3+ and SW620Gal3− cells was assessed in the chick chorioallantoic membrane (CAM) model. Galectin-3-expressing SW620^Gal3+ and Galectin-3-suppressed SW620^Gal3− cells were transfected with pHIV-Luc-ZsGreen vector and engrafted to the CAM on embryonic day 7. The compound of Formula I (24 μM) was injected into the allantoic cavity on the following day and the tumour formation and growth was analysed by fluorescence microscopy (FIG. 10A) and IVIS imaging (FIGS. 10B-FIG. 10D) on embryonic day 14. Seventy percent eggs grafted with Galectin-3-expressing SW620^Gal3+ cells formed various sized tumours in the absence of Formula I while the number of eggs formed in the Formula I treated group was reduced to 30%.
as §1, with “SW620Gal3−” for “SW620Gal3− cells”, “SW620^Ga13−” for “SW620^Gal3−”
(§2) Fertilised white leghorn chicken eggs were obtained from Lees Lane Poultry (Wirral, UK). The eggs were windowed on embryonic Day 3 with 4 ml albumin removed. The eggs were incubated at 37° C. in 35-40% humidity until embryonic day 7. ZsGreen- and luciferase-expressing SW620Gal3+ and SW620Gal3− cells (2.5×10^6) were then embedded on the chorioallantoic membrane (CAM). On embryonic Days 8 and 11, the inhibitors (24 μM) or control DMSO/PBS were injected into the allantoic cavity. The eggs were incubated until embryonic Day 14 The eggs were imaged using a Microscope as well as by IVIS. The embryos were then immediately decapitated. Organs were examined under fluorescence microscope for presence of ZsGreen-labelled tumour cells. Ethical approval for the experiments using chick embryos up to embryonic Day 14 was obtained from the Liverpool Animal Welfare and Ethical Review Body.

SW620^Gal3− cells = assay: as above; assay type: in vivo, chicken embryos; details: 24 μM; Galectin-3-suppressed SW620^Gal3−
Experimental: as §1
as §1, with “SW620Gal3−” for “SW620Gal3− cells”, “SW620^Ga13−” for “SW620^Gal3−”
as §2

SW620 cells = assay: Tumour growth in mice (subcutaneous graft); assay type: in vivo, Balb/c nude mice; details: 5 mg/kg subcutaneously, 3 times a week for 4 weeks
Experimental: (§3) The compound of Formula I effect on tumour growth was assessed in Balb/c nude mice. Luciferase-transfected human colon cancer SW620 cells were grafted subcutaneously to mice and the compound of Formula I (5 mg/kg) was administrated subcutaneously, 3 times a week for 4 weeks. Tumour growths were monitored by IVIS imaging (FIG. 11A) and also measured by clipers.
as §3, with “imaging” for “imaging (FIG. 11A)”
Female Balb/c nude mice aged 6-7 weeks were purchased from Charles River Laboratories (Margate, UK) and maintained in specific pathogen-free conditions with a 12:12 hour light:dark cycle. All animal studies were conducted with UK Home Office and local ethics committee approval.
Sixteen 6˜7 weeks old mice were randomly divided into two equal A and B groups (8 mice/group). The animals were injected s.c. with 2×10^6 ZsGreen- and luciferase-expressing SW620Gal3+ cells. […] Tumour size were measured with callipers every two days. […]

C[C@H]1COc2c(N3CCN(C)CC3)c(F)cc3c(=O)c(C(=O)NNc4ccc(N)cc4)cn1c23 [Formula I]
Galectin-3-induced secretion of IL-1β [1]: dose-dependent inhibition | Galectin-3-induced secretion of IL-6 [1]: dose-dependent inhibition | Galectin-3-induced secretion of TNFα [1]: dose-dependent inhibition | number of eggs that formed tumours (SW620^Gal3+ cells; 24 μM into allantoic cavity, embryonic day 14, 70% without Formula I): 30% | reduction of luminescence intensity in the tumours (SW620^Gal3+ cells; 24 μM, IVIS imaging, embryonic day 14, vs group without Formula I): 66% | tumours showing metastasis to other organs (SW620^Gal3+ cells; 24 μM, 25% in the absence of Formula I): none | tumour formation or growth (SW620^Gal3− cells): no effect | inhibition of tumour growth (SW620 cells): 51%

From US20260137696A1, “Compositions Comprising an Inhibitor of Galectin-3” (University of Liverpool, priority 2023, published 2026)
